Measurements published in article PMC8402609, “Guiding the Immune Response to a Conserved Epitope in MSP2, an Intrinsically Disordered Malaria Vaccine Candidate” (Vaccines, 2021).
Where a SMILES comes first, the peptide text is derived from it. Bridges are numbered along the chain shown (N, C = ends). Roman numbers before positions name the chains, in order.

How the values were obtained:
3D7 merozoites = test: Merozoite ELISA with pooled mouse sera, 3D7 merozoites; type: in vivo, P. falciparum; settings: pooled sera of immunised mice, two-fold dilutions from 1:500; merozoites 1 × 10^7/well; OD 450 nm; rank order in words
Method: (§1) The reactivity of mouse polyclonal antibodies with merozoites was determined by ELISA using merozoites from both the 3D7 and FC27 (D10 clone) strains of P. falciparum. The parasites were cultured in human erythrocytes at a haematocrit of 3% in RPMI media supplemented with […]. Viable merozoites were isolated as described previously. Highly synchronised late-stage schizonts were magnet-purified via a MACS magnet separation column (Miltenyi Biotec, Macquarie Park, Australia) and treated with E64 protease inhibitor (ThermoFisher Scientific, Scoresby, Australia) until mature merozoites were formed. Merozoites were released forcing them through a 1.2 µm filter.
(§2) Purified whole merozoites were resuspended in PBS supplemented with a cocktail of protease inhibitors (Roche, Castle Hill, Australia). Isolated merozoites were used to coat Nunc Maxisorp™ plates at 1 × 10^7/well and incubated overnight at 4 °C. The plates were then blocked with 1% casein in PBS at 37 °C for 2 h (or overnight at 4 °C). Pooled sera samples were added to wells at two-fold serial dilution in duplicate with a starting dilution of 1:500 and incubated at RT for 1 h. The plates were further incubated with HRP-conjugated goat anti-mouse IgG antibody diluted at 1:1000 in 0.1% casein in PBS at RT for 1 h. The plates were washed six times with PBS between each incubation step. Finally, 3,3′,5,5′-tetramethylbenzidine (TMB) substrate (Thermo Fisher Scientific, Scoresby, Australia) was added to the wells for the development of colour for 15 min and the reaction was stopped with 1 M sulfuric acid. The OD was measured at 450 nm.
The ability to induce an immune response that can recognise parasite MSP2 is essential in the design of an MSP2-based peptide vaccine. We isolated merozoites from both 3D7 and FC27 (D10 clone) strains of P. falciparum, coated them on ELISA plates and probed them with sera from the immunised mice (Figure 6). mAb 4D11 and the MSP2 mix pre-bleed were also included as positive and negative controls, respectively.

[1] = tested on: FC27 (D10 clone) merozoites; test: Merozoite ELISA with pooled mouse sera, FC27 merozoites; type: in vivo, P. falciparum; settings: pooled sera of immunised mice, two-fold dilutions from 1:500; merozoites 1 × 10^7/well; OD 450 nm; rank order in words
Method: as §1
as §2, with “Finally, 3,3′,5,5′-tetramethylbenzidine (TMB) substrate (Thermo Fisher Scientific, Scoresby, Australia) was added to the wells for the development of colour for 15 min and the reaction was stopped with 1 M sulfuric acid.” left out, “nm. […]” for “nm.”

[2] = tested on: biotinylated 13-residue peptides (A-I) spanning the C-terminal region of MSP2; test: Fine specificity of antisera by peptide array ELISA (peptides A-I); type: in vivo, mouse; settings: individual sera of mice immunised with peptide-KLH conjugate or MSP2 mix, diluted 1:1000; indirect ELISA; peptides C-D span 9H4 epitope, E-G span 4D11 epitope
Method: Peptide was conjugated to maleimide-activated KLH (Sigma-Aldrich) following the manufacturer’s protocol. Briefly, 1 mg of each peptide was mixed with 1 mg KLH in the provided buffer for a 200-fold molar excess of peptide to carrier protein. The reaction mixture was degassed under nitrogen and mixed at room temperature (RT) for 2 h. Any unreacted peptide was removed by dialysis against PBS using a 10 kDa cut-off membrane. The extent of conjugation was determined using Ellman’s reagent. Peptide-KLH conjugate stock solution was stored at 4 °C until further use. Prior to immunisation, peptide-KLH conjugates were diluted to 1 mg/mL in PBS and formulated with Montanide ISA720 at an antigen:adjuvant ratio of 3:7 and a final concentration of 0.3 mg/mL. The 3D7 + FC27 MSP2 mix was formulated using 0.15 mg/mL of each allelic form. Female C57BL/6 mice (n = 6 per group) were inoculated subcutaneously with 100 µL containing 30 µg of antigen at weeks 0, 4 and 8, then euthanised at week 10. Sera were collected and stored at −80 °C.
To determine peptide-KLH binding to 4D11 and 9H4, Maxisorp 96-well microtitre plates (Nunc, Rochester, NY, USA) were coated overnight at 4 °C with 2 µg/mL peptide-KLH in PBS. The plates were blocked with 1% BSA in PBS for 1 h before adding 100 µL of 4D11 and 9H4 IgG in eleven half log10 serial dilutions starting from stock at 1 µg/mL. After 1 h incubation at 4 °C and washing, antigen-bound antibodies were detected with goat anti-mouse IgG (1:2000 dilution) and freshly prepared 2,2-azinobis(3-ethylbenzthiazolinesulfonic acid (ABTS) substrate (1 mm) in citric acid buffer, pH 4.2, containing […]. The absorbance was read at 405 nm using a microplate reader. For determination of peptide-specific antibody titres, peptide-BSA conjugate was coated on the plate at 2 µg/mL. Individual mouse sera were added at a starting dilution of 1000-fold with six half log10 serial dilutions. Endpoint titres were taken as the x-axis intercept of the dilution curve at an absorbance value of three standard deviations (s.d.) greater than OD405 for naïve mouse serum. The fine specificities of the antisera were determined by ELISA using an array of nine biotinylated 13-residue peptides (A-I), which overlap by 2 or 3 residues and spanned the C-terminal region of MSP2 [11, 13]. Maxisorp 96-well microtitre plates (Nunc) were coated overnight at 4 °C with 1 µg/mL streptavidin in PBS. The plates were blocked with 1% BSA in PBS for 2 h before adding 1:500 biotinylated peptides. Individual sera samples were diluted 1:1000 in blocking solution before addition to the peptide array. Antibody was detected with the same protocol as mentioned above.
To characterise the response against these dimeric peptides further, the specificity of the induced antibodies was determined by indirect ELISA using an array of nine biotinylated peptides that spanned the epitopes recognised by the 4D11 and 9H4 mAbs (peptides A-I) (Table 3). Peptides C and D spanned the 9H4 epitope, whilst peptides E to G spanned the 4D11 epitope. […] However, the response against MSP2 was largely dominated by a single mouse in the group.

Question: What does the source list for `CC(=O)N[C@@H](CC(N)=O)C(=O)N[C@@H](CCCCN)C(=O)N[C@@H](CCC(=O)O)C(=O)N[C@@H](CC(N)=O)C(=O)N[C@@H](CSSC[C@H](NC(=O)[C@H](CC(N)=O)NC(=O)[C@H](CCC(=O)O)NC(=O)[C@H](CCCCN)NC(=O)[C@H](CC(N)=O)NC(C)=O)C(=O)NCC(=O)N[C@@H](C)C(=O)N[C@@H](C)C(=O)N[C@@H](CS)C(N)=O)C(=O)NCC(=O)N[C@@H](C)C(=O)N[C@@H](C)C(N)=O` [Peptide D1] (I: Ac-NKENCGAAC-NH2 / II: Ac-NKENCGAA-NH2; disulfide I:5-II:5)?
Answer: reactivity of pooled sera with 3D7 merozoites (3D7 merozoites): weak reactivity; reactivity of pooled sera with FC27 merozoites [1]: weak reactivity; specificity of the induced antibodies (peptide array A-I) [2]: almost exclusively directed to the 4D11 epitope
